Data reported in US8586577B2, “Diazepane acetamide derivatives as selective 11B-HSD1 inhibitors” (Merck Patent GmbH, priority 2006, dated 2013).

Columns and labels:
Format in all cases: biochemical
[1] = target: T1, human 11-beta HSD-1 (Homo sapiens, UniProt P28845); assay: 11beta-HSD1 enzyme assay, human recombinant enzyme from E. coli, HTRF cortisol detection; details: cortisone/NADPH 200 nM/200 μM, 150 min at 37° C., read-out: Inhibition of human 11-beta HSD-1 IC50
T1 construct: made in house; host or cells: E. coli
T1 sequence (P28845 whole entry): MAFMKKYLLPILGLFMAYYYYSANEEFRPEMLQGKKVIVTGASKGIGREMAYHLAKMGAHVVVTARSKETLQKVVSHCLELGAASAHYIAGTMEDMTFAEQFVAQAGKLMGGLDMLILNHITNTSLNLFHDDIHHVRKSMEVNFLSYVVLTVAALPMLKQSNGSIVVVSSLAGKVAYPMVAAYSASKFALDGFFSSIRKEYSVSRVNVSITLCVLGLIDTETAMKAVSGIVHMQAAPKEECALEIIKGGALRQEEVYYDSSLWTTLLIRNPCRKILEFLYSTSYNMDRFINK
Method: (§1) Human recombinant 11beta-hydroxysteroid dehydrogenase type 1 (11beta-HSD1) enzyme and type 2 (11beta-HSD2) enzymes were expressed expressed in E. coli. Mice liver microsome fractions were purchased from TEBU.
(§2) The 11beta-HSD1 enzyme assay was carried out in 96 well microliter plates in a total volume of 100 μl containing 30 mM Hepes buffer, pH 7.4 with 1 mM EDTA, substrate mixture cortisone/NADPH (200 nM/200 μM), G-6-P (1 mM) and inhibitors in serial dilutions. Reactions were initiated by addition of 10 μl 11beta-HSD1 (3 μg) from E. coli, or as microsome fractions from mice liver (2.5 μg). Following mixing, the plates were shaken for 150 minutes at 37° C. The reactions were terminated with 10 μl Acid-18beta glycyrrhetinic stop solution. Determinations of cortisol levels in 11 beta-HSD1 preparations were monitored by HTRF (HTRF cortisol assay from C is bio international).
(§3) Activity is expressed in % of control or concentration to inhibit 50% of the enzyme activity (IC50).

[2] = target: T2, mouse 11-beta HSD-1 (Mus musculus, UniProt P50172); assay: 11beta-HSD1 enzyme assay, mice liver microsome fractions, HTRF cortisol detection; details: for IC50: read-out: Inhibition of mouse 11-beta HSD-1 IC50
T2 construct: or as microsome fractions from mice liver (2.5 μg); tissue TEBU; host or cells: mouse liver microsome fractions
T2 sequence (P50172 whole entry): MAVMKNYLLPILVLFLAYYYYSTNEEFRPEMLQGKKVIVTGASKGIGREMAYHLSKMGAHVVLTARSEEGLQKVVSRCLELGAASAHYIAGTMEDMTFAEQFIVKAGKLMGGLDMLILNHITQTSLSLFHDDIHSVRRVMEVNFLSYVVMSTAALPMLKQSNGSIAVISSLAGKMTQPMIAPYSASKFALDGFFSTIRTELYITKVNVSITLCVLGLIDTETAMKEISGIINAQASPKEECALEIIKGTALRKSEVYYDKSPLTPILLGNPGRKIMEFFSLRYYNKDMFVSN
Method: as §1, §2, §3

[3] = target: T3, human 11-beta HSD-2 (Homo sapiens, UniProt P80365); assay: 11beta-HSD2 enzyme assay, human recombinant enzyme (cortisol, NAD, carbenoxolone stop); details: for IC50: read-out: Inhibition of human 11-beta HSD-2 IC50; for Selectivity Ratio human HSD2/HSD1: ratio of IC50 human HSD-2 to human HSD-1
T3 construct: made in house; host or cells: E. coli
T3 sequence (P80365 1-405): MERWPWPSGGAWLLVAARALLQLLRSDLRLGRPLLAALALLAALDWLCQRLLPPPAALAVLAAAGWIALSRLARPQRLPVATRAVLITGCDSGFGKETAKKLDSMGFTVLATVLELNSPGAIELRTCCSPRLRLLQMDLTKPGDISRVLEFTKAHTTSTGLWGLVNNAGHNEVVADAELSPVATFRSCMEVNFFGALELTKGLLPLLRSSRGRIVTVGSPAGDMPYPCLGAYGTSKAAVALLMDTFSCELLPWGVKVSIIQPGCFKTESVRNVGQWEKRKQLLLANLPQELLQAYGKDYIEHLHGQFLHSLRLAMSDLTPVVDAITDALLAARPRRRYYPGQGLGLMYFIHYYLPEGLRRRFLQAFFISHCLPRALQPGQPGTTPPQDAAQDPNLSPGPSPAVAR
Method: [Worded in the source for another target; used here, by the source, with some conditions changed.] as §1, §2, §3

Work on O=C(CN1CCCN(S(=O)(=O)c2ccccc2Cl)CC1)N1CCCCC1 [Ex 3-6, 2-[4-(2-Chloro-benzenesulfonyl)-[1,4]diazepan-1-yl]-1-piperidin-1-yl-ethanone] yielded an IC50 [1] of 420 nM.

For O=C(CN1CCCN(S(=O)(=O)c2ccccc2Cl)CC1)N1CCCC2CCCCC21 (centres unmarked) [Ex 2, 2-[4-(2-Chloro-benzenesulfonyl)-[1,4]diazepan-1-yl]-1-(octahydro-quinolin-1-yl)-ethanone], the IC50 [2] was 250 nM and the “Inhibition of human 11-beta HSD-2, activity in % of control” value ([3]; at 10 μM, human recombinant enzyme) was 81% of Ctrl.

In the case of O=C(CN1CCCN(S(=O)(=O)c2ccccc2F)CC1)N1CCC2(C=Cc3ccccc32)CC1 [Ex 3-10, 2-[4-(2-fluoro-benzenesulfonyl)-[1,4]diazepan-1-yl]-1-spiro[1H-inden-1,4′piperidin-1-yl)-ethanone], the IC50 [1] is reported as 122 nM.

O=C(CN1CCCN(S(=O)(=O)c2c(F)cccc2F)CC1)N1CCCC2CCCCC21 (centres unmarked) [Ex 2-2, 2-[4-(2,6-Difluoro-benzenesulfonyl)-[1,4]diazepan-1-yl]-1-(octahydro-quinolin-1-yl)-ethanone] was tested, and the IC50 [1] was 17 nM.

For O=C(CN1CCCN(S(=O)(=O)c2ccccc2F)CC1)N(C1CCCCC1)C1CC1 [Ex 3, N-Cyclohexyl-N-cyclopropyl-2-[4-(2-fluoro-benzenesulfonyl)-[1,4]diazepan-1-yl]-acetamide], the IC50 [1] was 76 nM, the IC50 [2] was 230 nM and the IC50 ([3]; human recombinant enzyme) was 7000 nM. For the same compound, the “Selectivity Ratio human HSD2/HSD1” value [3] was 92.

CN(C(=O)CN1CCCN(S(=O)(=O)c2ccccc2F)CC1)C1CCCCC1 [Ex 3-3, N-Cyclohexyl-2-[4-(2-fluoro-benzenesulfonyl)-[1,4]diazepan-1-yl]-N-methyl-acetamide] gave an IC50 [1] of 430 nM.

O=C(CN1CCCN(S(=O)(=O)c2ccccc2F)CC1)N1CCCC2CCCCC21 (centres unmarked) [Ex 2-1, 2-[4-(2-Fluoro-benzenesulfonyl)-[1,4]diazepan-1-yl]-1-(octahydro-quinolin-1-yl)-ethanone] was tested, and the IC50 [1] was 27 nM, the “Inhibition of mouse 11-beta HSD-1, activity in % of control” value ([2]; at 1 μM) was 53% of Ctrl and the IC50 ([3]; human recombinant enzyme) was 3000 nM. For the same compound, the “Selectivity Ratio human HSD2/HSD1” value [3] was 111.
